Source: patent publication US20080312300A1, “Processes for the Preparation of Stable Polymorphic Form I of Ritonavir” (priority 2005, published 2008)

Test: Stability study on storage (polymorphic conversion followed by XRD)
Assay type: physicochemical
Experimental: A first aspect of the present invention provides stable polymorphic Form I of ritonavir having no tendency to convert to any other polymorphic form. […] The X-Ray powdered Diffraction (XRPD) pattern of stable Form I of ritonavir is provided in FIGS. 1a and 2a of the drawing.
(XRD pattern of the title compound stored at 25° C. after 3 months is depicted in FIG. 3).

| Compound | conversion in the polymorphic form on storage (stored at 25° C. for 3 months, XRD pattern (FIG. 3)) | stability of polymorphic form upon storage (prepared as per prior art process, tendency to convert to other forms, especially Form II) |
| --- | --- | --- |
| CC(C)c1nc(CN(C)C(=O)N[C@H](C(=O)N[C@@H](Cc2ccccc2)C[C@H](O)[C@H](Cc2ccccc2)NC(=O)OCc2cncs2)C(C)C)cs1 (relative stereo) [Example 2, [5S-(5R*,8R*,10R*,11R*)]-10-Hydroxy-2-methyl-5-(1-methylethyl)-1-[2-(1-methylethyl)-4-thiazolyl]-3,6-dioxo-8,11-bis(phenylmethyl)-2,4,7,12-tetraazamidecan-13-oic acid, 5-thiazolylmethyl ester] | no conversion in the polymorphic form was observed |  |
| CC(C)c1nc(CN(C)C(=O)N[C@H](C(=O)N[C@@H](Cc2ccccc2)C[C@H](O)[C@H](Cc2ccccc2)NC(=O)OCc2cncs2)C(C)C)cs1 (single isomer, unassigned) [Form I of ritonavir, [5S-(5R*,8R*,10R*,11R*)]-10-Hydroxy-2-methyl-5-(1-methylethyl)-1-[2-(1-methylethyl)-4-thiazolyl]-3,6-dioxo-8,11-bis(phenylmethyl)-2,4,7,12-tetraazamidecan-13-oic acid, 5-thiazolylmethyl ester] |  | not stable |
